Laboratory results reported in patent US20060142337A1, “Piperidine derivative and use thereof” (priority 2004, published 2006).
Counter-ions that a name gives are not always drawn.

Each compound was assayed against T1, substance P receptor (Homo sapiens, UniProt P25103) (assay: Radioligand receptor binding inhibitory activity using receptor from human lymphoblast cells (IM-9)). Conditions: [125I]-BHSP binding, receptor from IM-9 cells, 25 C, 30 min.
T1 construct: endogenous in cells; host or cells: IM-9 human lymphoblast cells (membrane preparation)
Method: Radioligand receptor binding inhibitory activity (Binding inhibitory activity using receptor from human lymphoblast cells (IM-9))
The method of M. A. Cascieri et al., “Molecular Pharmacology 42, p. 458 (1992)” was modified and used. The receptor was. prepared from human lymphoblast cells (IM-9). IM-9 cells (2×10^5 cells/mL) were incubated for 3 days (one liter), which was then subjected to centrifuge for 5 min. at 500×G to obtain cell pellets. The obtained pellets were washed once with phosphate buffer (Flow Laboratories, CAT. No. 28-103-05), which were then homogenized using Polytron homogenizer (“Kinematika”, Germany) in 30 mL of 50 mM Tris-HCl buffer (pH 7.4) containing 120 mM sodium chloride, 5 mM potassium chloride, 2 μg/mL chymostatin, 40 μg/mL bacitracin, 5 μg/mL phosphoramidon, 0.5 mM phenylmethylsulfonyl fluoride, 1 mM ethylenediamine tetra-acetate, which was subjected to centrifuge at 40,000×G for 20 min. The residue was washed twice with 30 mL of the buffer, which was then preserved frozen (−80° C.) as a specimen of the receptor.
The specimen was suspended in a reaction buffer (50 mM Tris-HCl buffer (pH 7.4), 0.02% bovine serum albumin, 1 mM phenylmethylsulfonyl fluoride, 2 μg/mL chymostatin, 40 μg/mL bacitracin and 3 mM manganese chloride) to have protein in the concentration of 0.5 mg/mL of protein and 100 μL portion of the suspension was used in the reaction. After addition of the sample and ^125]-BHSP (0.46 KBq), the reaction was allowed to proceed in 0.2 mL of reaction buffer at […] for 30 min. The amount of nonspecific binding was determined by adding substance P at a final concentration of 2×10^−6 M.
After the reaction, using a cell harvester (290 PHD, Cambridge Technology, Inc, U.S.A.), filtration was carried out through a glass filter (GF/B, Whatman, U.S.A.), which was immersed in 0.1% polyethyleneimine for 24 hrs. and dried. After washing three times with 250 μL of 50 mM Tris-HCl buffer (pH 7.4) containing 0.02% bovine serum albumin, the radioactivity remaining on the filter was. determined with a gamma counter.
The antagonistic activity of each compound obtained in Examples was determined in terms of the concentration necessary to cause 50% inhibition (IC50 value) under the above-described conditions, and the results were shown in Table 14.
The radio ligand means substance P labeled with [^125I].

T1 sequence (P25103 whole entry): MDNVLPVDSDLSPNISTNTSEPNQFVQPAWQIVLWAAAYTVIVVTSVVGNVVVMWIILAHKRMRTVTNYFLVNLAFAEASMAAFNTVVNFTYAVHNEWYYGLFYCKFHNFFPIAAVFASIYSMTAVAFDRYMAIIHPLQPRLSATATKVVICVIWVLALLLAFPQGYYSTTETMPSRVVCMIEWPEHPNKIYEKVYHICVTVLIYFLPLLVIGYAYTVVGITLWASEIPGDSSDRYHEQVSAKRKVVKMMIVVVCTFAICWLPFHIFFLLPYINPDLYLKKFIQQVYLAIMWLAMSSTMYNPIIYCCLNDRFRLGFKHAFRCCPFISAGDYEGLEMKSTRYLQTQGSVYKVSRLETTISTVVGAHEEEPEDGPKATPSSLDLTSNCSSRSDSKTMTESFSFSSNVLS

Row | Structure (SMILES) | IC50 [nM]
1 | CCNC(=O)N[C@H]1CC[C@H](C(=O)N2CC[C@H](O[C@H](C)c3cc(C(F)(F)F)cc(C(F)(F)F)c3)[C@H](c3ccccc3)C2)CC1 [Example 63, N-[trans-4-[[(3R,4S)-4-[(1R)-1-[3,5-Bis(trifluoromethyl)phenyl]ethoxy]-3-phenylpiperidin-1-yl]carbonyl]cyclohexyl]-N′-ethylurea] | 0.075
2 | C[C@@H](O[C@H]1CCN(C(=O)C2CCN(C3CCOC3=O)CC2)C[C@H]1c1ccccc1)c1cc(C(F)(F)F)cc(C(F)(F)F)c1 (single isomer, unassigned) [Example 34, hydrochloride] | 0.035
3 | CC(=O)N1CCC(NC(=O)N2CC[C@H](O[C@H](C)c3cc(C(F)(F)F)cc(C(F)(F)F)c3)[C@H](c3ccccc3)C2)CC1 [Example 71, (3R,4S)-N-(1-acetylpiperidin-4-yl)-4-[(1R)-1-[3,5-bis(trifluoromethyl)phenyl]ethoxy]-3-phenylpiperidine-1-carboxamide] | 0.094
4 | C[C@@H](O[C@H]1CCN(C(=O)[C@H]2CC[C@H](NC(=O)N(C)C)CC2)C[C@H]1c1ccccc1)c1cc(C(F)(F)F)cc(C(F)(F)F)c1 [Example 66, N′-[trans-4-[[(3R,4S)-4-[(1R)-1-[3,5-Bis(trifluoromethyl)phenyl]ethoxy]-3-phenylpiperidin-1-yl]carbonyl]cyclohexyl]-N,N-dimethylurea] | 0.072
5 | C[C@@H](O[C@H]1CCN(C(=O)C2CCN(C(=O)Cn3cnnn3)CC2)C[C@H]1c1ccccc1)c1cc(C(F)(F)F)cc(C(F)(F)F)c1 [Example 39, (3R,4S)-4-[(1R)-1-[3,5-Bis(trifluoromethyl)phenyl]ethoxy]-3-phenyl-1-[[1-(1H-tetrazol-1-ylacetyl)piperidin-4-yl]carbonyl]piperidine] | 0.032
6 | CCCC(=O)N[C@H]1CC[C@H](C(=O)N2CC[C@H](O[C@H](C)c3cc(C(F)(F)F)cc(C(F)(F)F)c3)[C@H](c3ccccc3)C2)CC1 [Example 44, N-[trans-4-[[(3R,4S)-4-[(1R)-1-[3,5-Bis(trifluoromethyl)phenyl]ethoxy]-3-phenylpiperidin-1-yl]carbonyl]cyclohexyl]butanamide] | 0.053
7 | CC(=O)N[C@H]1CC[C@H](C(=O)N2CC[C@H](O[C@H](C)c3cc(C(F)(F)F)cc(C(F)(F)F)c3)[C@H](c3ccccc3)C2)CC1 [Example 42, N-[trans-4-[[(3R,4S)-4-[(1R)-1-[3,5-Bis(trifluoromethyl)phenyl]ethoxy]-3-phenylpiperidin-1-yl]carbonyl]cyclohexyl]acetamide] | 0.023
8 | CNC(=O)N[C@H]1CC[C@H](C(=O)N2CC[C@H](O[C@H](C)c3cc(C(F)(F)F)cc(C(F)(F)F)c3)[C@H](c3ccccc3)C2)CC1 [Example 47, N-[trans-4-[[(3R,4S)-4-[(1R)-1-[3,5-Bis(trifluoromethyl)phenyl]ethoxy]-3-phenylpiperidin-1-yl]carbonyl]cyclohexyl]-N′-methylurea] | 0.036
9 | C[C@@H](O[C@H]1CCN(C(=O)[C@H]2CC[C@H](NC(=O)C3CC3)CC2)C[C@H]1c1ccccc1)c1cc(C(F)(F)F)cc(C(F)(F)F)c1 [Example 46, N-[trans-4-[[(3R,4S)-4-[(1R)-1-[3,5-Bis(trifluoromethyl)phenyl]ethoxy]-3-phenylpiperidin-1-yl]carbonyl]cyclohexyl]cyclopropanecarboxamide] | 0.061
10 | C[C@@H](O[C@H]1CCN(C(=O)C2CCN(C(=O)N3CCNC3=O)CC2)C[C@H]1c1ccccc1)c1cc(C(F)(F)F)cc(C(F)(F)F)c1 [Example 40, 1-[[4-[[(3R,4S)-4-[(1R)-1-[3,5-Bis(trifluoromethyl)phenyl]ethoxy]-3-phenylpiperidin-1-yl]carbonyl]piperidin-1-yl]carbonyl]imidazolidin-2-one] | 0.038
11 | CC(C)NC(=O)N[C@H]1CC[C@H](C(=O)N2CC[C@H](O[C@H](C)c3cc(C(F)(F)F)cc(C(F)(F)F)c3)[C@H](c3ccccc3)C2)CC1 [Example 65, N-[trans-4-[[(3R,4S)-4-[(1R)-1-[3,5-Bis(trifluoromethyl)phenyl]ethoxy]-3-phenylpiperidin-1-yl]carbonyl]cyclohexyl]-N′-isopropylurea] | 0.099
12 | C[C@@H](O[C@H]1CCN(C(=O)[C@H]2CC[C@H](NC(=O)c3cccs3)CC2)C[C@H]1c1ccccc1)c1cc(C(F)(F)F)cc(C(F)(F)F)c1 [Example 51, N-[trans-4-[[(3R,4S)-4-[(1R)-1-[3,5-Bis(trifluoromethyl)phenyl]ethoxy]-3-phenylpiperidin-1-yl]carbonyl]cyclohexyl]thiophene-2-carboxamide] | 0.077
13 | CC(=O)N[C@H]1CC[C@@H](C(=O)N2CC[C@H](O[C@H](C)c3cc(C(F)(F)F)cc(C(F)(F)F)c3)[C@H](c3ccccc3)C2)CC1 [Example 54, N-[cis-4-[[(3R,4S)-4-[(1R)-1-[3,5-Bis(trifluoromethyl)phenyl]ethoxy]-3-phenylpiperidin-1-yl]carbonyl]cyclohexyl]acetamide] | 0.075
14 | C[C@@H](O[C@H]1CCN(C(=O)C2CC(=O)N(C)C(=O)C2)C[C@H]1c1ccccc1)c1cc(C(F)(F)F)cc(C(F)(F)F)c1 [Example 77, 4-[[(3R,4S)-4-[(1R)-1-[3,5-Bis(trifluoromethyl)phenyl]ethoxy]-3-phenylpiperidin-1-yl]carbonyl]-1-methylpiperidine-2,6-dione] | 0.062
15 | COc1ccc(-n2nnnc2C(F)(F)F)cc1C(C)N[C@H]1CCN(C(=O)C2CCN(C(C)=O)CC2)C[C@H]1c1ccccc1 (single isomer, unassigned) [Example 83] | 0.058
16 | C[C@@H](O[C@H]1CCN(C(=O)[C@H]2CC[C@H](NC(=O)CN3CCCCC3=O)CC2)C[C@H]1c1ccccc1)c1cc(C(F)(F)F)cc(C(F)(F)F)c1 [Example 57, N-[trans-4-[[(3R,4S)-4-[(1R)-1-[3,5-Bis(trifluoromethyl)phenyl]ethoxy]-3-phenylpiperidin-1-yl]carbonyl]cyclohexyl]-2-(2-oxopiperidin-1-yl)acetamide] | 0.057
17 | CCNC(=O)[C@H]1CC[C@H](C(=O)N2CC[C@H](O[C@H](C)c3cc(C(F)(F)F)cc(C(F)(F)F)c3)[C@H](c3ccccc3)C2)CC1 [Example 69, trans-4-[[(3R,4S)-4-[(1R)-1-[3,5-Bis(trifluoromethyl)phenyl]ethoxy]-3-phenylpiperidin-1-yl]carbonyl]-N-ethylcyclohexanecarboxamide] | 0.099
18 | C[C@@H](O[C@H]1CCN(C(=O)[C@H]2CC[C@H](NS(C)(=O)=O)CC2)C[C@H]1c1ccccc1)c1cc(C(F)(F)F)cc(C(F)(F)F)c1 [Example 49, N-[trans-4-[[(3R,4S)-4-[(1R)-1-[3,5-Bis(trifluoromethyl)phenyl]ethoxy]-3-phenylpiperidin-1-yl]carbonyl]cyclohexyl]methanesulfonamide] | 0.055
19 | CC(=O)NC1CCN(C(=O)N2CC[C@H](O[C@H](C)c3cc(C(F)(F)F)cc(C(F)(F)F)c3)[C@H](c3ccccc3)C2)CC1 [Example 73, N-[1-[[(3R,4S)-4-[(1R)-1-[3,5-bis(trifluoromethyl)phenyl]ethoxy]-3-phenylpiperidin-1-yl]carbonyl]piperidin-4-yl]acetamide] | 0.097
20 | COc1ccc(-n2nnnc2C(F)(F)F)cc1C(C)N[C@H]1CCN(C(=O)CNC(C)=O)C[C@H]1c1ccccc1 (single isomer, unassigned) [Example 85] | 0.09
21 | CCC(=O)NC1CCN(C(=O)N2CC[C@H](O[C@H](C)c3cc(C(F)(F)F)cc(C(F)(F)F)c3)[C@H](c3ccccc3)C2)CC1 [Example 74, N-[1-[[(3R,4S)-4-[(1R)-1-[3,5-bis(trifluoromethyl)phenyl]ethoxy]-3-phenylpiperidin-1-yl]carbonyl]piperidin-4-yl]propanamide] | 0.087
22 | CC(C)C(=O)N[C@H]1CC[C@H](C(=O)N2CC[C@H](O[C@H](C)c3cc(C(F)(F)F)cc(C(F)(F)F)c3)[C@H](c3ccccc3)C2)CC1 [Example 45, N-[trans-4-[[(3R,4S)-4-[(1R)-1-[3,5-Bis(trifluoromethyl)phenyl]ethoxy]-3-phenylpiperidin-1-yl]carbonyl]cyclohexyl]-2-methylpropanamide] | 0.05
23 | CC(=O)NCC(=O)N1CCC(C(=O)N2CC[C@H](O[C@H](C)c3cc(C(F)(F)F)cc(C(F)(F)F)c3)[C@H](c3ccccc3)C2)CC1 [Example 38, N-[2-[4-[[(3R,4S)-4-[(1R)-1-[3,5-Bis(trifluoromethyl)phenyl]ethoxy]-3-phenylpiperidin-1-yl]carbonyl]piperidin-1-yl]-2-oxoethyl]acetamide] | 0.025
24 | C[C@@H](O[C@H]1CCN(C(=O)C2CCN(C3CCOC3=O)CC2)C[C@H]1c1ccccc1)c1cc(C(F)(F)F)cc(C(F)(F)F)c1 (single isomer, unassigned) [Example 35, hydrochloride] | 0.043
